Assay results: ChEMBL document CHEMBL1250421, “Synthesis of 5-deoxy-beta-D-galactofuranosides as tools for the characterization of beta-D-galactofuranosidases” (Bioorg Med Chem, 2010)
pIC50: −log10 of the molar value.

Molecular target: not listed separately
Assay: Inhibition of Penicillium fellutanum exo-beta-D-galactofuranosidase by spectrophotometry

pIC50	SMILES
2.98	OC[C@@H](O)[C@@H]1O[C@@H](n2cc[nH]c2=S)[C@H](O)[C@H]1O
3.22	O=[N+]([O-])c1ccc(S[C@@H]2O[C@@H]([C@H](O)CO)[C@H](O)[C@H]2O)cc1
4.00	CO[C@H]1CNC(=S)N1[C@@H]1O[C@@H]([C@H](O)CO)[C@H](O)[C@H]1O
4.10	Nc1ccc(S[C@@H]2O[C@@H]([C@H](O)CO)[C@H](O)[C@H]2O)cc1
4.70	O=C1O[C@@H]([C@H](O)CO)[C@H](O)[C@H]1O

System: Penicillium fellutanum
Assay: Activity of Penicillium fellutanum exo-beta-D-galactofuranosidase by spectrophotometry

Km [µM]	SMILES
3700	OC[C@@H](O)[C@@H]1O[C@@H](OCc2ccccc2)[C@H](O)[C@H]1O
310	O=[N+]([O-])c1ccc(O[C@@H]2O[C@@H]([C@H](O)CO)[C@H](O)[C@H]2O)cc1
2600	CO[C@@H]1O[C@@H]([C@H](O)CO)[C@H](O)[C@H]1O
